Assay results taken from the supplement of paper PMC10307832.

Experiments:
Test in all cases: relative viability (nuclei count vs DMSO), 5 days (fraction); higher = more cells survive
EMC-BAC-2 = system: EMC-BAC-2
In short: (§1)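 Lung cancer cell lines in 1536-well plates were dosed by pin tool the day after seeding, either with one drug alone or with a fixed anchor-drug dose plus five library-drug doses (not always all listed) in √10 steps. After 5 days, cells were fixed and their nuclei stained in one step (final 0.05% Triton X-100, 1% formaldehyde, 1 ug/ml Hoechst), then counted on 4× images. Relative viability is the nuclei count in treated wells divided by that in vehicle wells. Values are medians of duplicate plates.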

LK-2 = system: LK-2
In short: as §1

NCI-H727 = system: NCI-H727
In short: as §1

HOP-62 = system: HOP-62
In short: as §1

RERF-LC-KJ = system: RERF-LC-KJ
In short: as §1

NCI-H1650 = system: NCI-H1650
In short: as §1

NCI-H1651 = system: NCI-H1651
In short: as §1

NCI-H1437 = system: NCI-H1437
In short: as §1

HARA = system: HARA
In short: as §1

HCC-366 = system: HCC-366
In short: as §1

COR-L23 = system: COR-L23
In short: as §1

CAL-12T = system: CAL-12T
In short: as §1

NCI-H1734 = system: NCI-H1734
In short: as §1

NCI-H596 = system: NCI-H596
In short: as §1

PC-3 [JPC-3] = system: PC-3 [JPC-3]
In short: as §1

SK-LU-1 = system: SK-LU-1
In short: as §1

UMC-11 = system: UMC-11
In short: as §1

NCI-H3122 = system: NCI-H3122
In short: as §1

NCI-H2347 = system: NCI-H2347
In short: as §1

NCI-H441 = system: NCI-H441
In short: as §1

ABC-1 = system: ABC-1
In short: as §1

NCI-H1755 = system: NCI-H1755
In short: as §1

CN1CCN(CCOc2cc(OC3CCOCC3)c3c(Nc4c(Cl)ccc5c4OCO5)ncnc3c2)CC1 [Saracatinib] + O=C(CCCCCCC(=O)Nc1ccccc1)NO [Vorinostat] (partner 1 µM)
relative viability (EMC-BAC-2; first compound 0.02 µM): 0.417 | relative viability (EMC-BAC-2; first compound 0.2 µM): 0.43 | relative viability (EMC-BAC-2; first compound 0.6325 µM): 0.417 | relative viability (EMC-BAC-2; first compound 2 µM): 0.291 | relative viability (LK-2; first compound 0.02 µM): 0.353 | relative viability (LK-2; first compound 0.2 µM): 0.317 | relative viability (LK-2; first compound 0.6325 µM): 0.224 | relative viability (LK-2; first compound 2 µM): 0.234 | relative viability (NCI-H727; first compound 0.02 µM): 1.12 | relative viability (NCI-H727; first compound 0.2 µM): 0.996 | relative viability (NCI-H727; first compound 0.6325 µM): 1.23 | relative viability (NCI-H727; first compound 2 µM): 0.888 | relative viability (HOP-62; first compound 0.02 µM): 0.624 | relative viability (HOP-62; first compound 0.2 µM): 0.611 | relative viability (HOP-62; first compound 0.6325 µM): 0.769 | relative viability (HOP-62; first compound 2 µM): 0.618 | relative viability (RERF-LC-KJ; first compound 0.02 µM): 0.87 | relative viability (RERF-LC-KJ; first compound 0.2 µM): 0.729 | relative viability (RERF-LC-KJ; first compound 0.6325 µM): 0.753 | relative viability (RERF-LC-KJ; first compound 2 µM): 0.589 | relative viability (NCI-H1650; first compound 0.02 µM): 0.654 | relative viability (NCI-H1650; first compound 0.2 µM): 0.377 | relative viability (NCI-H1650; first compound 0.6325 µM): 0.548 | relative viability (NCI-H1650; first compound 2 µM): 0.492 | relative viability (NCI-H1651; first compound 0.02 µM): 0.598 | relative viability (NCI-H1651; first compound 0.2 µM): 0.547 | relative viability (NCI-H1651; first compound 0.6325 µM): 0.598 | relative viability (NCI-H1651; first compound 2 µM): 0.554 | relative viability (NCI-H1437; first compound 0.02 µM): 1.05 | relative viability (NCI-H1437; first compound 0.2 µM): 0.995 | relative viability (NCI-H1437; first compound 0.6325 µM): 1.14 | relative viability (NCI-H1437; first compound 2 µM): 1.17 | relative viability (HARA; first compound 0.02 µM): 0.505 | relative viability (HARA; first compound 0.2 µM): 0.654 | relative viability (HARA; first compound 0.6325 µM): 0.62 | relative viability (HARA; first compound 2 µM): 0.572 | relative viability (HCC-366; first compound 0.02 µM): 0.4 | relative viability (HCC-366; first compound 0.2 µM): 0.135 | relative viability (HCC-366; first compound 0.6325 µM): 0.399 | relative viability (HCC-366; first compound 2 µM): 0.221 | relative viability (COR-L23; first compound 0.02 µM): 0.361 | relative viability (COR-L23; first compound 0.2 µM): 0.41 | relative viability (COR-L23; first compound 0.6325 µM): 0.469 | relative viability (COR-L23; first compound 2 µM): 0.406 | relative viability (CAL-12T; first compound 0.02 µM): 0.804 | relative viability (CAL-12T; first compound 0.2 µM): 0.764 | relative viability (CAL-12T; first compound 0.6325 µM): 0.91 | relative viability (CAL-12T; first compound 2 µM): 0.696 | relative viability (NCI-H1734; first compound 0.02 µM): 0.793 | relative viability (NCI-H1734; first compound 0.6325 µM): 0.837 | relative viability (NCI-H1734; first compound 2 µM): 0.652 | relative viability (NCI-H596; first compound 0.02 µM): 0.568 | relative viability (NCI-H596; first compound 0.2 µM): 0.511 | relative viability (NCI-H596; first compound 0.6325 µM): 0.585 | relative viability (NCI-H596; first compound 2 µM): 0.406 | relative viability (PC-3 [JPC-3]; first compound 0.02 µM): 0.819 | relative viability (PC-3 [JPC-3]; first compound 0.2 µM): 0.47 | relative viability (PC-3 [JPC-3]; first compound 0.6325 µM): 0.529 | relative viability (PC-3 [JPC-3]; first compound 2 µM): 0.477 | relative viability (SK-LU-1; first compound 0.02 µM): 0.758 | relative viability (SK-LU-1; first compound 0.2 µM): 0.657 | relative viability (SK-LU-1; first compound 0.6325 µM): 0.657 | relative viability (SK-LU-1; first compound 2 µM): 0.509 | relative viability (UMC-11; first compound 0.02 µM): 0.376 | relative viability (UMC-11; first compound 0.2 µM): 0.363 | relative viability (UMC-11; first compound 0.6325 µM): 0.388 | relative viability (UMC-11; first compound 2 µM): 0.253 | relative viability (NCI-H3122; first compound 0.02 µM): 0.984 | relative viability (NCI-H3122; first compound 0.2 µM): 0.553 | relative viability (NCI-H3122; first compound 0.6325 µM): 0.891 | relative viability (NCI-H3122; first compound 2 µM): 0.788 | relative viability (NCI-H2347; first compound 0.02 µM): 0.558 | relative viability (NCI-H2347; first compound 0.2 µM): 0.413 | relative viability (NCI-H2347; first compound 0.6325 µM): 0.719 | relative viability (NCI-H2347; first compound 2 µM): 0.622 | relative viability (NCI-H441; first compound 0.02 µM): 0.84 | relative viability (NCI-H441; first compound 0.2 µM): 0.731 | relative viability (NCI-H441; first compound 0.6325 µM): 0.913 | relative viability (NCI-H441; first compound 2 µM): 0.94 | relative viability (ABC-1; first compound 0.02 µM): 0.905 | relative viability (ABC-1; first compound 0.2 µM): 0.99 | relative viability (ABC-1; first compound 0.6325 µM): 1.37 | relative viability (ABC-1; first compound 2 µM): 0.857 | relative viability (NCI-H1755; first compound 0.02 µM): 0.687 | relative viability (NCI-H1755; first compound 0.2 µM): 0.539 | relative viability (NCI-H1755; first compound 0.6325 µM): 0.861 | relative viability (NCI-H1755; first compound 2 µM): 0.707
